In brackets after ≈: the same amount, converted by molar mass. Entries after “also recorded” stand apart in the source; their conditions may differ. Like-named read-outs stand apart in the source and are kept apart here.
Assays:
[1] = synchrotron small angle X-ray scattering (SAXS) of model membranes; conditions: DOPE/DOPS=80/20; Pentobra to lipid 1/80; tobramycin to lipid 1/20 or 1/40
Experimental: Briefly, DOPE and DOPS lyophilized lipids from Avanti Polar lipids were used without further purification. SUVs were prepared by sonication. Stock solutions of DOPE and DOPS were prepared in chloroform at ˜20 mg/g. Mixtures of these lipids were prepared at molar ratios, so DOPE/DOPS=80/20 corresponded to a 4:1 lipid ratio. Chloroform was evaporated under N2, and the mixtures were dried further by overnight desiccation under vacuum. The dried lipids were resuspended the next day in 100 mM NaCl. Solutions were incubated at 37° C. for 18 h and then sonicated until clear. SUVs were obtained by extrusion (0.2 μm pore Nucleopore filter).
Pentobra and tobramycin stock solutions were prepared by dissolving the molecules in 100 mM NaCl. Lipids were thoroughly mixed with Pentobra/tobramycin at specific molecule to lipid ratios (P/L) in 100 mM NaCl. Sample solutions were hermetically sealed in quartz-glass capillaries (Hilgenberg GmbH, Mark-tubes, code no: 4017515). Synchrotron SAXS experiments were conducted at the Stanford Synchrotron Radiation Laboratory (BL 4-2). Monochromatic X-rays with 9 keV energy were used. Scattering was collected using a Rayonix MX225-HE detector (pixel size 73.2 μm). Samples were also measured at the California NanoSystems Institute (CNSI) at UCLA. […] Identical samples were prepared and measured at different times and multiple sources to ensure consistency between samples. […]

[2] = tested on: bioluminescent Staphylococcus aureus; test: in vivo murine implantation (implant infection) model; parameters: species or system lysEGFP mice; conditions: PMMA-coated titanium disks, subcutaneous; throughout 5 days; p<0.05
Experimental: Methods: Survival surgery was performed in which circular orthopedic-grade titanium disks were implanted subcutaneously on the backs of 25 lysEGFP mice. Disks were coated in poly-methyl-methacrylate (PMMA) cement mixed with either Pentobra, Tobramycin, or no antibiotic (control). The disks were inoculated with 1×10^7 colony-forming units (CFU) of bioluminescent Staphylococcus aureus. Bacterial burden and neutrophil inflammation were followed via bioluminescent and fluorescent imaging, respectively, on post-operative days (POD) 0, 1, 3, and 5. Implants and surrounding tissue were subsequently removed and cultured. Statistical assessment of data was performed via ANOVA analysis.

E. coli = test: microbe, parasite or virus in culture; assay type: cell-based; conditions: Escherichia coli
Source text: (§1) Pentobra was screened against a broad panel of microbial pathogens, including strains of E. coli, MRSA, Klebsiella (Kleb), Acinetobacter (AcB), Vancomycin-Sensitive Enterococci (VSE) and Vancomycin-Resistant Enterococci (VRE), and specifically including E. faecalis samples. […] The experimenter reported the minimum inhibitory concentration (MIC) in mass units per unit volume (μg/mL) for each compound, and MIC data were converted into molar concentrations (μM) due to the large difference between the molecular weight of tobramycin (467.5 g/mol) and Pentobra (2277 g/mol).

Klebsiella (Kleb) = test: microbe, parasite or virus in culture; assay type: cell-based; conditions: Klebsiella; isolate Kleb, W6921701-1; read-out: MIC
Source text: as §1

Acinetobacter (AcB) = test: microbe, parasite or virus in culture; assay type: cell-based; conditions: Acinetobacter; isolate AcB, PM1434; read-out: MIC
Source text: as §1

[3] = tested on: Vancomycin-Resistant Enterococci (VRE); test: microbe, parasite or virus in culture; assay type: cell-based; conditions: Enterococcus, read-out: MIC
Source text: as §1

MRSA = test: microbe, parasite or virus in culture; assay type: cell-based; conditions: isolate MRSA
Source text: as §1

E. coli Dh5α persisters = test: persister cell plate killing assay; assay type: cell-based, Escherichia coli
Experimental: Procedure for preparing S. aureus SA113 and E. coli Dh5α persister cells were based on previous protocols. Cells from freshly streaked agar plates were inoculated in 1 mL TSB and incubated 16 h at 37° C. in a shaker incubator to obtain stationary phase cultures. Non-persister cells were eliminated by adding ampicillin to a final concentration of 100 μg/mL, followed by 3 h incubation at 37° C.
E. coli cells were pelleted (5000 rpm for 5 min), washed in M9 minimal media and resuspended in M9 minimal media to a final bacteria stock solution of 5×10^7 CFU/mL. 20 μL E. coli suspension was introduced into 180 μL M9 media containing various concentrations of antibiotic (Pentobra, tobramycin) in 96 well plates for a total of 10^6 CFU/well. The plates were sealed with parafilm, loaded onto microplate shakers and placed in a 37° C. incubator for 1.5 h. After incubation, 10-fold serial dilutions were made with M9 media. Half of each dilution (100 μL) was spotted onto LB agar plates and incubated overnight at 37° C. to yield visible colonies. The E. coli persister assays were performed in quadruplicate.
The bactericidal effects of Pentobra against persistent bacteria were investigated with plate killing assays. […]

NC[C@H]1O[C@H](O[C@H]2[C@H](O)[C@@H](O[C@H]3O[C@H](CO)[C@@H](O)[C@H](N)[C@H]3O)[C@H](N)C[C@@H]2N)[C@H](N)C[C@@H]1O [tobramycin]
induced membrane curvature / phase (negative Gaussian curvature, NGC) [1]: induced NGC was not observed; also recorded: did not induce NGC or negative mean curvature | bacterial bioluminescent signal compared to control group [2]: significantly lower bacterial bioluminescent signal | MIC (E. coli; ATCC25922, isolate ATCC 25922, Ecoli (second entry), read-out: MIC): 2 µM (≈ 0.935 µg/mL) | MIC (E. coli; isolate ATCC Ecoli, 25922 (first entry)): 2 µM (≈ 0.935 µg/mL) | MIC (E. coli; isolate Ecoli,YD461, read-out: MIC): 34 µM (≈ 15.9 µg/mL) | MIC (Klebsiella (Kleb)): 68 µM (≈ 31.8 µg/mL) | MIC (Acinetobacter (AcB)): 34 µM (≈ 15.9 µg/mL) | MIC ([3]; VRE, isolate F6541102, VRE): > 274 µM | MIC ([3]; VRE, isolate H6926031, VRE*): 68 µM (≈ 31.8 µg/mL) | MIC ([3]; VRE, isolate M6865034, VRE): > 274 µM | MIC ([3]; VRE, isolate S3899836, VRE^? (second entry)): > 274 µM | MIC ([3]; VRE, isolate VRE, 24670): > 274 µM | MIC ([3]; VRE, isolate VRE, S3899836): > 274 µM | MIC ([3]; isolate 24670, VRE^? (second entry)): > 274 µM | MIC (MRSA; Staphylococcus aureus, F2806774, read-out: MIC): > 274 µM | MIC (MRSA; H2867813): >274 µM | killing activity against persister cells (E. coli Dh5α persisters; 1.5 h, entire range of tested concentrations): poor activity | activity against persisters at high concentration (E. coli Dh5α persisters; >50 μM): ineffective

Reference: US20170348337A1, “MULTIFUNCTIONAL MEMBRANE-ACTIVE AMINOGLYCOSIDE-PEPTIDE CONJUGATES” (priority 2014, published 2017)
